The source of these data is patent EP4603105A1, “PHARMACEUTICAL COMPOSITION CONTAINING CYCLIC COMPOUND HAVING SELECTIVE KRAS INHIBITORY EFFECT AGAINST HRAS AND NRAS” (CHUGAI SEIYAKU KABUSHIKI KAISHA, priority 2022, dated 2024).

Assay [1] concerns human lung cancer strain NCI-H441. It is filed as cell-based. A digest of the protocol:
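Signal came from […] measured per well once the reagent was added. Beforehand, cells were cultured at 37°C and 5% carbon dioxide on a compound series serially diluted in dimethyl sulfoxide.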

In the next assay the target is HRAS wild-type protein (Homo sapiens, UniProt P01112). Kind of assay: Binding to HRAS by surface plasmon resonance (SPR), KD and KD ratio to KRAS. The settings on record: ratio of KD value for HRAS wild-type protein to KD value for KRAS (SPR). Put shortly:
(§1)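 Measured at 30°C: SPR with GDP-loaded, E. coli-expressed biotin-Avi RAS captured (~100–300 RU), ascending 75 s compound injections, HBS pH 7.4 with GDP, MgCl2, 4% DMSO. KD from 1:1 fit.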

The target of assay [2] is GDP-bound NRAS wild-type protein (Homo sapiens, UniProt P01111). In words: Binding to NRAS by surface plasmon resonance (SPR), KD and KD ratio to KRAS. The settings on record: ratio of KD value for GDP-bound NRAS wild-type protein to KD value for KRAS (SPR). A digest of the protocol:
as §1

Sequence of HRAS wild-type protein (P01112 whole entry): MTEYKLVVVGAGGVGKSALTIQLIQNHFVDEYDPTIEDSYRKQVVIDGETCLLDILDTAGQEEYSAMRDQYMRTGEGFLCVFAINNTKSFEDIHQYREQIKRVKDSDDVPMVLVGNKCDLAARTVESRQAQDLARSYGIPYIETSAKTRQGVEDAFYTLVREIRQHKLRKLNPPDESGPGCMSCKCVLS
Sequence of GDP-bound NRAS wild-type protein (P01111 whole entry): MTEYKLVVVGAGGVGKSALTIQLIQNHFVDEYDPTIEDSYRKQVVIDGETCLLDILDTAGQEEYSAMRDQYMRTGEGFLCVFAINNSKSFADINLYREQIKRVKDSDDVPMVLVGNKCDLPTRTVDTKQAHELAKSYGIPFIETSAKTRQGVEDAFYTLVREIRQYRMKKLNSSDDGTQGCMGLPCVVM

`CCO[C@@H]1C[C@H]2C(=O)NC3(CC(C)(C)C3)C(=O)N(C)[C@@H](C3CCCC3)C(=O)N(C)[C@H](C(=O)N(C)C)CC(=O)N(C)[C@@H](CC)C(=O)N[C@@H]([C@@H](C)CC)C(=O)N(C)CC(=O)N(C)[C@H]3C/C=C\CCN(C3=O)[C@@H](Cc3ccc(C)cc3)C(=O)N(C)CC(=O)N[C@@H](CCc3ccc(C(F)(F)F)c(OC)c3)C(=O)N2C1` [PP1873] returned an IC50 in assay [1] of 0.0085 µM. Also, the “HRAS /KRAS” value on HRAS wild-type protein was “B (a compound having 3 or more and less than 10 is denoted as B)”. In addition, in assay [2], the “NRAS /KRAS” value is “A (a compound having 10 or more and less than 20 is denoted as A)”.
Compound `CC[C@H](C)[C@@H]1NC(=O)[C@H](CC)N(C)C(=O)C[C@@H](C(=O)N(C)CC)N(C)C(=O)[C@H](C2CCCC2)N(C)C(=O)C2(CC(C)(C)C2)NC(=O)[C@@H]2C[C@H](C)CN2C(=O)[C@H](CCc2ccc(C(F)(F)F)c(Cl)c2)NC(=O)CN(C)C(=O)[C@H](Cc2ccc(C)cc2)N2CC/C=C\C[C@@H](C2=O)N(C)C(=O)CN(C)C1=O` [PP1874] had an IC50 in assay [1] of 0.0099 µM. In addition, the “HRAS /KRAS” value on HRAS wild-type protein is “A (a compound having 10 or more and less than 20 is denoted as A)”. For the same compound, in assay [2], the “NRAS /KRAS” value was “A (a compound having 10 or more and less than 20 is denoted as A)”.
In the case of `CC[C@H](C)[C@@H]1NC(=O)[C@H](CC)N(C)C(=O)C[C@@H](C(=O)N(C)CC)N(C)C(=O)[C@H](C2CCCC2)N(C)C(=O)C2(CC(C)(C)C2)NC(=O)[C@@H]2C[C@@H](C)CN2C(=O)[C@H](CCc2ccc(C(F)(F)F)c(Cl)c2)NC(=O)CN(C)C(=O)[C@H](Cc2ccc(C)cc2)N2CC/C=C\C[C@@H](C2=O)N(C)C(=O)CN(C)C1=O` [PP1876], the IC50 in assay [1] stood at 0.023 µM. Moreover, the “HRAS /KRAS” value at HRAS wild-type protein is “A (a compound having 10 or more and less than 20 is denoted as A)”. Moreover, in assay [2], the “NRAS /KRAS” value was “A (a compound having 10 or more and less than 20 is denoted as A)”.
`CCO[C@@H]1C[C@H]2C(=O)NC3(CCC3)C(=O)N(C)[C@@H](C3CCCC3)C(=O)N(C)[C@H](C(=O)N(C)CC)CC(=O)N(C)[C@@H](CC3CC3)C(=O)N[C@@H]([C@@H](C)CC)C(=O)N(C)CC(=O)N(C)[C@H]3C/C=C\CCN(C3=O)[C@@H](Cc3ccc(C)cc3)C(=O)N(C)CC(=O)N[C@@H](CCc3ccc(C(F)(F)F)c(OC)c3)C(=O)N2C1` [PP1879] displayed a half-maximal inhibitory concentration (IC50) in assay [1] of 0.0169 µM. For the same compound, the “HRAS /KRAS” value at HRAS wild-type protein is “B (a compound having 3 or more and less than 10 is denoted as B)”. The “NRAS /KRAS” value in assay [2] was “A (a compound having 10 or more and less than 20 is denoted as A)”.
In turn, `CCO[C@@H]1C[C@H]2C(=O)NC3(CC(C)(C)C3)C(=O)N(C)[C@@H](C3CCCC3)C(=O)N(C)[C@H](C(=O)N(C)CC)CC(=O)N(C)[C@@H](CC)C(=O)N[C@@H]([C@@H](C)CC)C(=O)N(C)CC(=O)N(C)[C@H]3C/C=C\CCN(C3=O)[C@@H](Cc3ccc(C)cc3)C(=O)N(C)CC(=O)N[C@@H](CCc3ccc(C(F)(F)F)c(Cl)c3)C(=O)N2C1` [PP1880] came in with an IC50 in assay [1] of 0.0156 µM. Besides, the “HRAS /KRAS” value at HRAS wild-type protein was “B (a compound having 3 or more and less than 10 is denoted as B)”. The “NRAS /KRAS” value in assay [2] is “A (a compound having 10 or more and less than 20 is denoted as A)”.
In assay [1], `CCO[C@@H]1C[C@H]2C(=O)NC3(CC(C)(C)C3)C(=O)N(C)[C@@H](C3CCCC3)C(=O)N(C)[C@H](C(=O)N(CC)CC)CC(=O)N(C)[C@@H](CC)C(=O)N[C@@H]([C@@H](C)CC)C(=O)N(C)CC(=O)N(C)[C@H]3C/C=C\CCN(C3=O)[C@@H](Cc3ccc(C)cc3)C(=O)N(C)CC(=O)N[C@@H](CCc3ccc(C(F)(F)F)c(OC)c3)C(=O)N2C1` [PP1881] displayed an IC50 of 0.0167 µM. For the same compound, the “HRAS /KRAS” value on HRAS wild-type protein was “A (a compound having 10 or more and less than 20 is denoted as A)”. The “NRAS /KRAS” value in assay [2] is “A (a compound having 10 or more and less than 20 is denoted as A)”.
Take `CCO[C@@H]1C[C@H]2C(=O)NC3(CC(C)(C)C3)C(=O)N(C)[C@@H](C3CCCC3)C(=O)N(C)[C@H](C(=O)N(CC)CC)CC(=O)N(C)[C@@H](CC)C(=O)N[C@@H]([C@@H](C)CC)C(=O)N(C)CC(=O)N(C)[C@H]3C/C=C\CCN(C3=O)[C@@H](Cc3ccc(C)cc3)C(=O)N(C)CC(=O)N[C@@H](CCc3ccc(C(F)(F)F)c(Cl)c3)C(=O)N2C1` [PP1883]: inhibition in assay [1] was half-maximal at 0.024 µM (IC50). Also, the “HRAS /KRAS” value on HRAS wild-type protein is “A (a compound having 10 or more and less than 20 is denoted as A)”. Moreover, the “NRAS /KRAS” value in assay [2] is “A (a compound having 10 or more and less than 20 is denoted as A)”.
On to `CC[C@H](C)[C@@H]1NC(=O)[C@H](CC(C)C)N(C)C(=O)C[C@@H](C(=O)N(CC)CC)N(C)C(=O)[C@H](C2CCCC2)N(C)C(=O)C2(CCC2)NC(=O)[C@@H]2C[C@H](C)CN2C(=O)[C@H](CCc2ccc(C(F)(F)F)c(OC)c2)NC(=O)CN(C)C(=O)[C@H](Cc2ccc(C)cc2)N2CC/C=C\C[C@@H](C2=O)N(C)C(=O)CN(C)C1=O` [PP1885], for which the midpoint of inhibition in assay [1], the IC50, lay at 0.0183 µM. The “HRAS /KRAS” value on HRAS wild-type protein is “A (a compound having 10 or more and less than 20 is denoted as A)”. Further, in assay [2], the “NRAS /KRAS” value is on record as “AA (a compound having 20 or more is denoted as AA)”.
With `CCO[C@@H]1C[C@H]2C(=O)NC3(CC(C)(C)C3)C(=O)N(C)[C@@H](C3CCCC3)C(=O)N(C)[C@H](C(=O)N(C)CC)CC(=O)N(C)[C@@H](CC)C(=O)N[C@@H]([C@@H](C)CC)C(=O)N(C)CC(=O)N(C)[C@H]3C/C=C\CCN(C3=O)[C@@H](Cc3ccc(C)cc3)C(=O)N(C)CC(=O)N[C@@H](CCc3cc(F)c(C(F)(F)F)c(F)c3)C(=O)N2C1` [PP1886], inhibition in assay [1] was half-maximal at 0.0019 µM (IC50). Also, the “HRAS /KRAS” value on HRAS wild-type protein is “B (a compound having 3 or more and less than 10 is denoted as B)”. For the same compound, in assay [2], the “NRAS /KRAS” value was “A (a compound having 10 or more and less than 20 is denoted as A)”.
In assay [1], `CCC[C@H]1C(=O)N[C@@H]([C@@H](C)CC)C(=O)N(C)CC(=O)N(C)[C@H]2C/C=C\CCN(C2=O)[C@@H](Cc2ccc(C)cc2)C(=O)N(C)CC(=O)N[C@@H](CCc2ccc(C(F)(F)F)c(OC)c2)C(=O)N2C[C@@H](C)C[C@H]2C(=O)NC2(CC(C)(C)C2)C(=O)N(C)[C@@H](C2CCCC2)C(=O)N(C)[C@H](C(=O)N(C)CC)CC(=O)N1C` [PP1889] had an IC50 of 0.0125 µM. Besides, the “HRAS /KRAS” value on HRAS wild-type protein is “B (a compound having 3 or more and less than 10 is denoted as B)”. In assay [2], the “NRAS /KRAS” value was “A (a compound having 10 or more and less than 20 is denoted as A)”.
On to `CCC[C@H]1C(=O)N[C@@H]([C@@H](C)CC)C(=O)N(C)CC(=O)N(C)[C@H]2C/C=C\CCN(C2=O)[C@@H](Cc2ccc(C)cc2)C(=O)N(C)CC(=O)N[C@@H](CCc2ccc(C(F)(F)F)c(OC)c2)C(=O)N2C[C@H](C)C[C@H]2C(=O)NC2(CC(C)(C)C2)C(=O)N(C)[C@@H](C2CCCC2)C(=O)N(C)[C@H](C(=O)N(C)CC)CC(=O)N1C` [PP1891], for which the half-inhibitory concentration (IC50) in assay [1] was 0.0026 µM. Further, the “HRAS /KRAS” value at HRAS wild-type protein was “A (a compound having 10 or more and less than 20 is denoted as A)”. Also, in assay [2], the “NRAS /KRAS” value was “A (a compound having 10 or more and less than 20 is denoted as A)”.
Consider `CCC[C@H]1C(=O)N[C@@H]([C@@H](C)CC)C(=O)N(C)CC(=O)N(C)[C@H]2C/C=C\CCN(C2=O)[C@@H](Cc2ccc(C)cc2)C(=O)N(C)CC(=O)N[C@@H](CCc2ccc(C(F)(F)F)c(OC)c2)C(=O)N2C[C@H](OCC)C[C@H]2C(=O)NC2(CC(C)(C)C2)C(=O)N(C)[C@@H](C2CCCC2)C(=O)N(C)[C@H](C(=O)N(C)C)CC(=O)N1C` [PP1892], for which the IC50 in assay [1] amounted to 0.0048 µM. Also, the “HRAS /KRAS” value on HRAS wild-type protein was “B (a compound having 3 or more and less than 10 is denoted as B)”. Also, in assay [2], the “NRAS /KRAS” value was “A (a compound having 10 or more and less than 20 is denoted as A)”.
